Measurements published in publication PMC3080024 (Synapse (New York, N.Y.), 2010).
pIC50: −log10 of the molar value. Values joined by “and” are separate entries in the source; they are usually repeats but may differ in a detail not shown here. Equal values may be shown once. Read-outs that look alike come from different tables or passages of the source.

Tests used:
[1] = test system: p-glycoprotein (Pgp); details: cited from earlier work
[2] = test system: 5-HT1A receptor sites; test: Estimated occupancy by unlabeled ligand mass in the PET studies; assay type: in vivo, rhesus monkey; details: for occupancy at the 5-HT1A receptor sites: estimated from rat ED50; for occupancy of the unlabeled drug: comparable ED50 assumed
[3] = Arterial plasma kinetics of parent radiotracer; details: for fraction of radioactivity in the plasma due to parent radiotracer: 30 minutes after injection; for clearance rate from the arterial plasma: after period of rapid clearance (>30 minutes), bolus injection
[4] = Cerebellar kinetics by PET, single-tissue compartment model; details: for cerebellar clearance rate, slow component: exponential fit, t > 30 minutes
[5] = ref Pike et al., 2000; Saigal et al., 2006; cited from earlier work
[6] = target: T1, 5-HT1A receptor (Macaca mulatta, UniProt F7GIU0); assay type: in vivo, rhesus monkey
T1 sequence (F7GIU0 1-421): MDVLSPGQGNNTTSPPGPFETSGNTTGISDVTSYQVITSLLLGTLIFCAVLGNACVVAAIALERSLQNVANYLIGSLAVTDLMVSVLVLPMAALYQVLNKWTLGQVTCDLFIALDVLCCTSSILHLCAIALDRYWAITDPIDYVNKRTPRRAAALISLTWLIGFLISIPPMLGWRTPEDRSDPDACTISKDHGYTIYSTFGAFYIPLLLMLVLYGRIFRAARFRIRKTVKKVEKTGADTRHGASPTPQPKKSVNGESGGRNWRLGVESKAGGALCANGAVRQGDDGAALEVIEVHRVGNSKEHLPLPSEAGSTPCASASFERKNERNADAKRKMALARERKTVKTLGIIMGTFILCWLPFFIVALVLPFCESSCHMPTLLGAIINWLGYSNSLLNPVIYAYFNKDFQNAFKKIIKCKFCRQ

[7] = test system: 5-HT1A receptor; details: ref Saigal et al., 2006, cited from earlier work
[8] = rhesus monkey, previous measurements; ref Saigal et al., 2006; cited from earlier work

COc1ccccc1N1CCN(CCN(C(=O)C2CCCCC2)c2ccccn2)CC1 [WAY100635]
Pgp substrate ([1]; not told): Neither mefway nor WAY100635 have been found to be Pgp substrates | occupancy at the 5-HT1A receptor sites ([2]; M1, injected mass 1.0 nmol/kg): 18% | occupancy at the 5-HT1A receptor sites ([2]; M4, injected mass 0.7 nmol/kg): 13%

COc1ccccc1N1CCN(CCN(C(=O)C2CCCCC2)c2ccccn2)CC1 [[C-11]WAY100635, [Carbonyl-C-11]N-(2-(1-(4-(2-Methoxyphenyl)-piperazinyl)ethyl)-N-pyridinyl) cyclohexanecarboxamide]
fraction of radioactivity in the plasma due to parent radiotracer [3]: 29% | clearance rate from the arterial plasma [3]: 0.0069 min⁻¹ | DVND (nondisplaceable distribution volume, K1/k2) ([4]; cerebellum, mean over subjects): 2.62 | DVND (nondisplaceable distribution volume, K1/k2) ([4]; cerebellum, subject M1): 2.55 | DVND (nondisplaceable distribution volume, K1/k2) ([4]; cerebellum, subject M3): 2.62 | DVND (nondisplaceable distribution volume, K1/k2) ([4]; cerebellum, subject M4): 2.70 | cerebellar clearance rate, slow component [4]: 0.014 min⁻¹ | K1 in the cerebellum ([4]; mean over subjects): 0.74 mL/min/mL | k2 in the cerebellum ([4]; mean over subjects): 0.28 min⁻¹ | K1 in the cerebellum ([4]; subject M1): 0.51 mL/min/mL | k2 in the cerebellum ([4]; subject M1): 0.20 min⁻¹ | K1 in the cerebellum ([4]; subject M3): 1.10 mL/min/mL | k2 in the cerebellum ([4]; subject M3): 0.42 min⁻¹ | K1 in the cerebellum ([4]; subject M4): 0.62 mL/min/mL | k2 in the cerebellum ([4]; subject M4): 0.23 min⁻¹ | logP [5]: 3.28 | BPND ([6]; ACG, mean over subjects): 7.9±1.2 and 7.92 | BPND ([6]; ACG, subject M1): 6.90 | BPND ([6]; ACG, subject M3): 7.64 | BPND ([6]; ACG, subject M4): 9.21 | BPND ([6]; IC, mean over subjects): 4.7±1.0 and 4.65 | BPND ([6]; IC, subject M1): 4.08 | BPND ([6]; IC, subject M3): 4.11 | BPND ([6]; IC, subject M4): 5.77 | BPND ([6]; MTC, mean over subjects): 7.0±1.2 and 7.00 | BPND ([6]; MTC, subject M1): 5.97 | BPND ([6]; MTC, subject M3): 8.37 | BPND ([6]; MTC, subject M4): 6.66 | BPND ([6]; RN, mean over subjects): 3.3±0.7 and 3.27 | BPND ([6]; RN, subject M1): 3.97 | BPND ([6]; RN, subject M3): 2.66 | BPND ([6]; RN, subject M4): 3.17

COc1ccccc1N1CCN(CCN(C(=O)c2ccc(F)cc2)c2ccccn2)CC1 [[F-18]MPPF, 4-Fluoro-N-[2-[4-(2-methoxyphenyl)piperazin-1-yl]ethyl]-N-pyridin-2-ylbenzamide]
fraction of radioactivity in the plasma due to parent radiotracer [3]: 28% | clearance rate from the arterial plasma [3]: 0.0078 min⁻¹ | cerebellar clearance rate, slow component [4]: 0.011 min⁻¹ | K1 in the cerebellum ([4]; mean over subjects): 1.00 mL/min/mL | k2 in the cerebellum ([4]; mean over subjects): 0.34 min⁻¹ | Kp ([4]; rhesus monkey, in vivo, DVND (nondisplaceable distribution volume, K1/k2), cerebellum, subject M4): 2.89 | K1 in the cerebellum ([4]; subject M2): 0.90 mL/min/mL | k2 in the cerebellum ([4]; subject M2): 0.29 min⁻¹ | K1 in the cerebellum ([4]; subject M3): 1.32 mL/min/mL | k2 in the cerebellum ([4]; subject M3): 0.45 min⁻¹ | K1 in the cerebellum ([4]; subject M4): 0.78 mL/min/mL | k2 in the cerebellum ([4]; subject M4): 0.27 min⁻¹ | Pgp substrate ([1]; ref Passchier et al., 2000): substrate for p-glycoprotein (Pgp) | BPND ([6]; ACG, mean over subjects): 2.1±0.2 and 2.12 | BPND ([6]; ACG, subject M1): 2.05 | BPND ([6]; ACG, subject M2): 2.19 | BPND ([6]; ACG, subject M3): 1.93 | BPND ([6]; ACG, subject M4): 2.30 | time to plateau of target to CB ratio (pseudoequilibrium) ([6]; IC (intermediate binding)): approximately 20 minutes | BPND ([6]; IC, mean over subjects): 1.2±0.1 and 1.15 | BPND ([6]; IC, subject M1): 1.24 | BPND ([6]; IC, subject M2): 1.11 | BPND ([6]; IC, subject M3): 0.98 | BPND ([6]; IC, subject M4): 1.28 | BPND ([6]; MTC, mean over subjects): 3.1±0.4 and 3.14 | BPND ([6]; MTC, subject M1): 3.01 | BPND ([6]; MTC, subject M2): 3.67 | BPND ([6]; MTC, subject M3): 2.99 | BPND ([6]; MTC, subject M4): 2.88 | BPND ([6]; RN, mean over subjects): 1.3±0.3 and 1.34 | BPND ([6]; RN, subject M1): 1.49 | BPND ([6]; RN, subject M2): 1.71 | BPND ([6]; RN, subject M3): 0.98 | BPND ([6]; RN, subject M4): 1.18 | time to plateau of target to CB ratio (pseudoequilibrium) ([6]; high binding regions): approximately 30 minutes | occupancy of the unlabeled drug [2]: less than 3%

COc1ccccc1N1CCN(CCN(C(=O)C2CCC(C[18F])CC2)c2ccccn2)CC1 (stereo not shown) [[F-18]mefway, N-{2-[4-(2-methoxyphenyl)piperazinyl]ethyl}-N-(2-pyridyl)-N-(4-[F-18]-fluoromethylcyclohexane)carboxamide]
displacement of binding ([7]; competition of 10 μM of WAY100635): almost completely displaced | fraction of radioactivity in the plasma due to parent radiotracer [3]: 19% | clearance rate from the arterial plasma [3]: 0.0031 min⁻¹ | fraction of radiolabeled lipophilic metabolites [8]: < 10% | DVND (nondisplaceable distribution volume, K1/k2) ([4]; cerebellum, mean over subjects): 4.02 | DVND (nondisplaceable distribution volume, K1/k2) ([4]; cerebellum, subject M1): 4.92 | DVND (nondisplaceable distribution volume, K1/k2) ([4]; cerebellum, subject M2): 3.53 | DVND (nondisplaceable distribution volume, K1/k2) ([4]; cerebellum, subject M3): 4.22 | DVND (nondisplaceable distribution volume, K1/k2) ([4]; cerebellum, subject M4): 3.41 | cerebellar clearance rate, slow component [4]: 0.010 min⁻¹ | K1 in the cerebellum ([4]; mean over subjects): 1.02 mL/min/mL | k2 in the cerebellum ([4]; mean over subjects): 0.27 min⁻¹ | K1 in the cerebellum ([4]; subject M1): 0.59 mL/min/mL | k2 in the cerebellum ([4]; subject M1): 0.12 min⁻¹ | K1 in the cerebellum ([4]; subject M2): 1.34 mL/min/mL | k2 in the cerebellum ([4]; subject M2): 0.38 min⁻¹ | K1 in the cerebellum ([4]; subject M3): 1.14 mL/min/mL | k2 in the cerebellum ([4]; subject M3): 0.27 min⁻¹ | K1 in the cerebellum ([4]; subject M4): 0.99 mL/min/mL | k2 in the cerebellum ([4]; subject M4): 0.29 min⁻¹ | logP [5]: 2.62 | BPND ([6]; ACG, mean over subjects): 7.2±1.2 | BPND ([6]; ACG, mean over subjects, listed as [F-18]MEFWAY): 7.15 | BPND ([6]; ACG, subject M1): 6.92 | BPND ([6]; ACG, subject M2): 7.00 | BPND ([6]; ACG, subject M3): 5.87 | BPND ([6]; ACG, subject M4): 8.82 | BPND ([6]; IC, mean over subjects): 4.2±0.6 | BPND ([6]; IC, mean over subjects, listed as [F-18]MEFWAY): 4.16 | BPND ([6]; IC, subject M1): 4.51 | BPND ([6]; IC, subject M2): 3.57 | BPND ([6]; IC, subject M3): 3.72 | BPND ([6]; IC, subject M4): 4.83 | BPND ([6]; MTC, mean over subjects): 7.4±0.6 | BPND ([6]; MTC, mean over subjects, listed as [F-18]MEFWAY): 7.36 | BPND ([6]; MTC, subject M1): 7.23 | BPND ([6]; MTC, subject M2): 8.25 | BPND ([6]; MTC, subject M3): 7.17 | BPND ([6]; MTC, subject M4): 6.77 | plateau of target to CB ratio ([6]; MTC, total time of acquisition): a plateau is not reached within the total time of acquisition | BPND ([6]; RN, mean over subjects): 3.7±0.6 | BPND ([6]; RN, mean over subjects, listed as [F-18]MEFWAY): 3.69 | BPND ([6]; RN, subject M1): 4.06 | BPND ([6]; RN, subject M2): 4.00 | BPND ([6]; RN, subject M3): 2.85 | BPND ([6]; RN, subject M4): 3.84 | time to plateau of target to CB ratio ([6]; high uptake regions, 2 hour scanning period): > 2 h | occupancy of the unlabeled drug [2]: less than 3%

COc1ccccc1N1CCN(CCN(C(=O)C2CCC(CF)CC2)c2ccccn2)CC1 (stereo not shown) [mefway]
pIC50 ([7]; against [F-18]mefway): 7.59 | Pgp substrate ([1]; no reference given): Neither mefway nor WAY100635 have been found to be Pgp substrates
